Measured values as given in paper PMC10525585, “Evaluation of the Antibacterial Effect of Aurone-Derived Triazoles on Staphylococcus aureus” (Antibiotics, 2023).
Values joined by “and” are separate entries in the source; they are usually repeats but may differ in a detail not shown here. Equal values may be shown once. Read-outs that look alike come from different tables or passages of the source. Blank lines part the entries; values can stand above or below the molecule they belong to.

How the values were obtained:
[1] = system: methicillin-resistant S. aureus ATCC 43300 (MRSA); assay: Antibacterial assay (broth microdilution, PrestoBlue); assay type: cell-based, Staphylococcus aureus; conditions: for MRSA inhibition (100µM) / IC50: Table S1; for IC50: read-out: IC50 MRSA
Protocol: (§1) MRSA strain ATCC 43300 and MSSA strain S. aureus ATCC 29213 were grown on Tryptic Soy Agar (TSA) plates. Before use, an isolated colony was transferred from the TSA plate into Tryptic Soy Broth (TSB) and incubated 18–24 h in a humidified incubator at 37 °C. To adjust for a standard concentration of bacteria, the turbidity of the culture was measured at 600 nm, and its optical density (OD600) adjusted to be in the range 0.08–0.12 which equates to a concentration of approximately 1 × 10^8 CFU/mL. This suspension was diluted 1:20 in TSB. […] MRSA strain S. aureus ATCC 43300 and MSSA strain S. aureus ATCC 29213 were used for all testing in this study.
(§2) The assay for anti-Staphylococcal activity of AT compounds was prepared in 96-well transparent, U-bottom plates. A series of 2-fold dilutions of AT concentrations was tested in triplicate, with each well containing 10 µL of prepared bacterium and 90 µL of AT mixture in CAMHB. […] Blank wells with only CAMHB, a negative control well with 10 µL of bacterium solution mixed into 90 µL CAMHB, a vehicle control well with bacteria mixed into 1% DMSO in CAMBH, and a positive cell death control with vancomycin (1 µL of stock 2 mg/mL solution in 89 µL CAMHB with 10 µL of bacteria) were included. The plate was incubated for 18–24 h at 37 °C in a humidified incubator. Before measurement, PrestoBlue^TM dye (Invitrogen, Carlsbad, CA, USA) was added (10 µL per well) and incubated for 1 h with aluminum foil covering the plate. A CLARIOstar® (BMG LABTECH, Cary, NC, USA) multi-mode plate reader was used to measure the fluorescence at wavelengths of 560 nm for excitation and 590 nm for emission. Inhibitory concentration (IC50) values were defined as half inhibitory concentration and were computed using GraphPad Prism version 9.1 software.

[2] = system: HepG2 (ATCC HB-8065) cells; assay: Cytotoxicity assay (PrestoBlue); assay type: cell-based, Human
[3] = system: methicillin-sensitive S. aureus ATCC 29213 (MSSA); assay: microbe, parasite or virus in culture; conditions: Table S1; for IC50: read-out: IC50 MSSA
Protocol: as §1, §2

HeLa (ATCC CCL-2) cells = assay: Cytotoxicity assay (PrestoBlue)
Protocol: Human HeLa epithelial (ATCC CCL-2) and HepG2 liver epithelial (ATCC HB-8065) cell lines were used to determine toxicity of AT compounds for mammalian cells. The cells were grown in a complete culture medium of RPMI 1640 with 10% heat-inactivated fetal bovine serum (FBS) at 37 °C in 5% CO2 (95% room air) in a humidified incubator. Before use, attached cell monolayers, which had reached at least 90% confluency, were detached by trypsinization with trypsin-EDTA (0.25%) and resuspension in fresh complete culture media. For experiments, the stock concentration of 1 × 10^5 cells/mL (to achieve a final 1 × 10^4 cells/well concentration) was achieved by counting the trypsinized cells and adjusting to their final concentration for assays.
HeLa or HepG2 cells were pre-seeded into a 96-well transparent, flat bottom plate by adding a volume of 100 µL stock cell concentration (1 × 10^5 cells/mL) in complete culture media to each well. The plate was incubated overnight at 37 °C in a 5% CO2 (95% room air) humidified incubator. After the incubation and before mixing in the AT compounds, a 100 µL volume of fresh complete culture media was added to the pre-seeded wells. The 2-fold dilutions of AT compounds in triplicates were prepared on a separate 96-well plate. Once the dilution plate was prepared, dilutions were transferred into the pre-seeded plate to achieve the same concentrations of ATs as for the inhibition assay described above. The final inoculated plate was then returned to the 5% CO2 (95% room air) humidified incubator for an additional 24 h of incubation with the diluted ATs. Controls were blank wells containing only media, wells with cells and DMSO in complete culture media, and wells with cells and complete culture media only. Measurement of toxicity was analogous to the inhibition assay except that 20 µL of PrestoBlue^TM was used and the incubation was 3–6 h before reading with the plate-reader. Cytotoxicity concentration (CC50) was defined as the concentration where half of the cells remained viable and was computed using GraphPad Prism.

IC50 [1]: 4.18 µM
IC50 [3]: 6.03 µM
SMILES: N#Cc1ccc(-c2n[nH]nc2C(=O)c2ccc(Cl)cc2O)cc1 [AT120]
MRSA inhibition (100µM) [1]: 99.51%
CC50 [2]: 38.1 µM
MSSA inhibition (100µM) [3]: 71.82%
CC50 (HeLa (ATCC CCL-2) cells): 17.2 µM

SMILES: O=C(c1ccccc1O)c1n[nH]nc1-c1ccc(O)cc1 [AT117]
MRSA inhibition (100µM) [1]: 19.39%
MSSA inhibition (100µM) [3]: 0%

SMILES: O=C(c1ccccc1O)c1n[nH]nc1-c1cccc([N+](=O)[O-])c1 [AT104]
MRSA inhibition (100µM) [1]: 48.19%

SMILES: CC(=O)Nc1ccc(-c2n[nH]nc2C(=O)c2ccccc2O)cc1 [AT136]
MRSA inhibition (100µM) [1]: 0%
MSSA inhibition (100µM) [3]: 0%

SMILES: O=C(c1ccccc1O)c1n[nH]nc1-c1ccccc1Cl [AT108]
MRSA inhibition (100µM) [1]: 8.46%
MSSA inhibition (100µM) [3]: 30.63%

SMILES: N#Cc1ccc(-c2n[nH]nc2C(=O)c2cc(F)ccc2O)cc1 [AT126]
MRSA inhibition (100µM) [1]: 75.06%
MSSA inhibition (100µM) [3]: 64.72%

SMILES: Cc1cc(O)c(C(=O)c2n[nH]nc2-c2cccc([N+](=O)[O-])c2)cc1C [AT130]
MRSA inhibition (100µM) [1]: 43.97%
MSSA inhibition (100µM) [3]: 58.75%

IC50 [1]: 31.2 µM
IC50 [3]: 12.5 µM
SMILES: Cc1ccc(-c2n[nH]nc2C(=O)c2cccc(Cl)c2O)cc1 [AT123]
MRSA inhibition (100µM) [1]: 23.62%
CC50 [2]: 58.7 µM
MSSA inhibition (100µM) [3]: 99.45%
CC50 (HeLa (ATCC CCL-2) cells; read-out: CC50 HeLa, Table S1): 14.4 µM

SMILES: N#Cc1ccc(-c2n[nH]nc2C(=O)c2cccc(Cl)c2O)cc1 [AT119]
MRSA inhibition (100µM) [1]: 46.21%
MSSA inhibition (100µM) [3]: 64.36%

SMILES: Cc1ccc(O)c(C(=O)c2n[nH]nc2-c2cccc([N+](=O)[O-])c2)c1 [AT131]
MRSA inhibition (100µM) [1]: 0%
MSSA inhibition (100µM) [3]: 21.31%

SMILES: O=C(c1ccccc1O)c1n[nH]nc1-c1ccsc1 [AT134]
MRSA inhibition (100µM) [1]: 0%
MSSA inhibition (100µM) [3]: 10.83%

SMILES: O=C(c1ccccc1O)c1n[nH]nc1-c1cccc(Cl)c1 [AT107]
MRSA inhibition (100µM) [1]: 56.47%
MSSA inhibition (100µM) [3]: 50.24%

IC50 [1]: 13.4 µM
SMILES: N#Cc1ccc(-c2n[nH]nc2C(=O)c2cccc(Br)c2O)cc1 [AT124]
MRSA inhibition (100µM) [1]: 32.16%
CC50 [2]: 3.85 µM
MSSA inhibition (100µM) [3]: 43.36%

IC50 [1]: 38.8 µM
SMILES: N#Cc1ccc(-c2n[nH]nc2C(=O)c2ccccc2O)cc1 [AT100]
MRSA inhibition (100µM) [1]: 96.47% and > 96%
CC50 [2]: 70.7 µM
MSSA inhibition (100µM) [3]: 58.77%
CC50 (HeLa (ATCC CCL-2) cells; read-out: CC50 HeLa, Table S1): 19.1 µM

SMILES: Cc1cccc(C(=O)c2n[nH]nc2-c2cccc([N+](=O)[O-])c2)c1O [AT132]
MRSA inhibition (100µM) [1]: 57.99%
MSSA inhibition (100µM) [3]: 83.03%

SMILES: N#Cc1ccc(-c2n[nH]nc2C(=O)c2c(O)cccc2Cl)cc1 [AT122]
MRSA inhibition (100µM) [1]: 18.51%
MSSA inhibition (100µM) [3]: 1.01%

SMILES: N#Cc1ccccc1-c1n[nH]nc1C(=O)c1ccccc1O [AT102]
MRSA inhibition (100µM) [1]: 35.77%
MSSA inhibition (100µM) [3]: 0%

SMILES: O=C(c1ccccc1O)c1n[nH]nc1-c1ccc(I)cc1 [AT113]
MRSA inhibition (100µM) [1]: 43.81%
MSSA inhibition (100µM) [3]: 85.79%

IC50 [1]: 3.98 µM
SMILES: O=C(c1ccccc1O)c1n[nH]nc1-c1ccc([N+](=O)[O-])cc1 [AT103]
MRSA inhibition (100µM) [1]: 88.53%
CC50 [2]: 2.65 µM
MSSA inhibition (100µM) [3]: 81.57%

SMILES: Cc1ccc(-c2n[nH]nc2C(=O)c2cc(C)c(C)cc2O)cc1 [AT133]
MRSA inhibition (100µM) [1]: 58.84%
MSSA inhibition (100µM) [3]: 88.47%

SMILES: O=C(c1ccccc1O)c1n[nH]nc1-c1cccs1 [AT135]
MRSA inhibition (100µM) [1]: 5.42%
decrease of anti-MRSA activity ([1]; compared with AT137 (no bromine on the thiophene ring)): over 15 fold
MSSA inhibition (100µM) [3]: 46.76%
